Where “and” joins values, the source holds several entries; their conditions need not be identical. Equal entries are not always repeated.
System: MV/FrankfurtMain.DEU/17.11 (genotype D8)
Experiment: White blood cell counts from whole blood
Format: in vivo, squirrel monkeys (Saimiri sciureus)
Conditions: for Cells [10^3/mm^3], white blood cells / Cells/ml, white blood cells / Counted Cells (Total), white blood cells: individual animals
Experimental: White blood cell counts, viral load quantification in PBMCs, and quantification of neutralizing antibody titers were performed as follows: for white blood cell counts, blood was diluted 1:100 in 3% acetic acid and cells were counted using a Neubauer chamber. For viral load quantification in PBMCs, blood was centrifuged at 3000 rpm for 15 min and serum was frozen at −20 °C until further use. Red blood cell lysis was performed and the remaining PBMCs were counted using a Neubauer chamber. Viral titers in PBMCs were quantified in quadruplicates using limited dilution method and calculated as TCID50/10^6 PBMCs. Neutralizing antibody titers were quantified by incubating MeV with 2-fold serial dilutions of the respective serum for 20 min at room temperature in quadruplicates. Vero/hSLAM cells were added and incubated for 3 days at 37 °C. Neutralizing antibody titers are expressed as the reciprocal of the highest serum dilution showing no signs of infection. For virus titration from throat swabs, swabs were placed in 150 μl DMEM with 3% penicillin/streptomycin and the titer was quantified by limited dilution method.

SMILES: Cn1nc(C(F)(F)F)cc1C(=O)Nc1ccc(S(=O)(=O)N2CCCC[C@H]2CCN2CCOCC2)cc1 [ERDRP-0519]
- WBC group mean (Mean 2) (prophylactic group, Row 2 (3 dpi)): 4.958 10^3cells/mm^3
- WBC group mean (Mean 2) (prophylactic group, Row 3 (7 dpi)): 5.875 10^3cells/mm^3
- WBC group mean (Mean 2) (prophylactic group, Row 4 (10 dpi)): 4.125 10^3cells/mm^3
- WBC group mean (Mean 2) (prophylactic group, Row 5 (14 dpi)): 4.25 10^3cells/mm^3
- WBC group mean (Mean 2) (prophylactic group, Row 6 (17 dpi)): 4.583 10^3cells/mm^3
- WBC group mean (Mean 2) (prophylactic group, Row 7 (21 dpi)): 4.333 10^3cells/mm^3
- Cells [10^3/mm^3], white blood cells (therapeutic (d3) group, 0 dpi): 4.25 10^3/mm^3 and 7.75 10^3/mm^3 and 4.75 10^3/mm^3 and 5.75 10^3/mm^3 and 5 10^3/mm^3
- Cells/ml, white blood cells (therapeutic (d3) group, 0 dpi): 7.75E+06 Cells/ml and 4.75E+06 Cells/ml and 5.75E+06 Cells/ml and 5.00E+06 Cells/ml and 4.25E+06 Cells/ml
- Counted Cells (Total), white blood cells (therapeutic (d3) group, 0 dpi): 17 and 31 and 19 and 23 and 20
- Cells [10^3/mm^3], white blood cells (therapeutic (d3) group, 3 dpi): 8.75 10^3/mm^3 and 8.25 10^3/mm^3 (2×) and 6.5 10^3/mm^3 and 5 10^3/mm^3 and 4.5 10^3/mm^3
- Cells/ml, white blood cells (therapeutic (d3) group, 3 dpi): 8.25E+06 Cells/ml (2×) and 6.50E+06 Cells/ml and 5.00E+06 Cells/ml and 4.50E+06 Cells/ml and 8.75E+06 Cells/ml
- Counted Cells (Total), white blood cells (therapeutic (d3) group, 3 dpi): 35 and 33 (2×) and 26 and 20 and 18
- Cells [10^3/mm^3], white blood cells (therapeutic (d3) group, 7 dpi): 3.25 10^3/mm^3 and 8.25 10^3/mm^3 and 4.75 10^3/mm^3 and 3.75 10^3/mm^3 and 7.25 10^3/mm^3 and 2.25 10^3/mm^3
- Cells/ml, white blood cells (therapeutic (d3) group, 7 dpi): 8.25E+06 Cells/ml and 4.75E+06 Cells/ml and 3.75E+06 Cells/ml and 7.25E+06 Cells/ml and 2.25E+06 Cells/ml and 3.25E+06 Cells/ml
- Counted Cells (Total), white blood cells (therapeutic (d3) group, 7 dpi): 13 and 33 and 19 and 15 and 29 and 9
- Cells [10^3/mm^3], white blood cells (therapeutic (d3) group, 10 dpi): 1.75 10^3/mm^3 and 2.75 10^3/mm^3 and 3 10^3/mm^3 and 3.75 10^3/mm^3 and 4.5 10^3/mm^3 and 4.25 10^3/mm^3
- Cells/ml, white blood cells (therapeutic (d3) group, 10 dpi): 2.75E+06 Cells/ml and 3.00E+06 Cells/ml and 3.75E+06 Cells/ml and 4.50E+06 Cells/ml and 4.25E+06 Cells/ml and 1.75E+06 Cells/ml
- Counted Cells (Total), white blood cells (therapeutic (d3) group, 10 dpi): 7 and 11 and 12 and 15 and 18 and 17
- Cells [10^3/mm^3], white blood cells (therapeutic (d3) group, 14 dpi): 6 10^3/mm^3 and 7.5 10^3/mm^3 and 5.5 10^3/mm^3 and 10.75 10^3/mm^3 and 12.75 10^3/mm^3 and 3.25 10^3/mm^3
- Cells/ml, white blood cells (therapeutic (d3) group, 14 dpi): 7.50E+06 Cells/ml and 5.50E+06 Cells/ml and 1.08E+07 Cells/ml and 1.28E+07 Cells/ml and 3.25E+06 Cells/ml and 6.00E+06 Cells/ml
- Counted Cells (Total), white blood cells (therapeutic (d3) group, 14 dpi): 24 and 30 and 22 and 43 and 51 and 13
- Cells [10^3/mm^3], white blood cells (therapeutic (d3) group, 17 dpi): 4.25 10^3/mm^3 and 5 10^3/mm^3 and 4.75 10^3/mm^3 and 4.5 10^3/mm^3 and 3.75 10^3/mm^3
- Cells/ml, white blood cells (therapeutic (d3) group, 17 dpi): 5.00E+06 Cells/ml and 4.75E+06 Cells/ml and 4.50E+06 Cells/ml and 3.75E+06 Cells/ml and 4.25E+06 Cells/ml
- Counted Cells (Total), white blood cells (therapeutic (d3) group, 17 dpi): 17 and 20 and 19 and 18 and 15
- Cells [10^3/mm^3], white blood cells (therapeutic (d3) group, 21 dpi): 4.5 10^3/mm^3 and 3.5 10^3/mm^3 and 10.25 10^3/mm^3 and 7.5 10^3/mm^3 and 2.25 10^3/mm^3
- Cells/ml, white blood cells (therapeutic (d3) group, 21 dpi): 3.50E+06 Cells/ml and 1.02E+07 Cells/ml and 7.50E+06 Cells/ml and 2.25E+06 Cells/ml and 4.50E+06 Cells/ml
- Counted Cells (Total), white blood cells (therapeutic (d3) group, 21 dpi): 18 and 14 and 41 and 30 and 9
- WBC group mean (Mean 2) (therapeutic (d3) group, Row 1 (0 dpi)): 5.5 10^3cells/mm^3
- WBC group mean (Mean 2) (therapeutic (d3) group, Row 2 (3 dpi)): 6.875 10^3cells/mm^3
- WBC group mean (Mean 2) (therapeutic (d3) group, Row 3 (7 dpi)): 4.917 10^3cells/mm^3
- WBC group mean (Mean 2) (therapeutic (d3) group, Row 4 (10 dpi)): 3.333 10^3cells/mm^3
- WBC group mean (Mean 2) (therapeutic (d3) group, Row 5 (14 dpi)): 7.642 10^3cells/mm^3
- WBC group mean (Mean 2) (therapeutic (d3) group, Row 6 (17 dpi)): 4.45 10^3cells/mm^3
- WBC group mean (Mean 2) (therapeutic (d3) group, Row 7 (21 dpi)): 5.61 10^3cells/mm^3
- Cells [10^3/mm^3], white blood cells (therapeutic (d7) group, 0 dpi): 2.75 10^3/mm^3 and 3 10^3/mm^3 (2×) and 7.25 10^3/mm^3 and 5.25 10^3/mm^3
- Cells/ml, white blood cells (therapeutic (d7) group, 0 dpi): 3.00E+06 Cells/ml (2×) and 7.25E+06 Cells/ml and 5.25E+06 Cells/ml and 2.75E+06 Cells/ml
- Counted Cells (Total), white blood cells (therapeutic (d7) group, 0 dpi): 11 and 12 (2×) and 29 and 21
- Cells [10^3/mm^3], white blood cells (therapeutic (d7) group, 3 dpi): 7.5 10^3/mm^3 and 12.5 10^3/mm^3 and 6.5 10^3/mm^3 and 7.75 10^3/mm^3 (2×) and 8.75 10^3/mm^3
- Cells/ml, white blood cells (therapeutic (d7) group, 3 dpi): 1.25E+07 Cells/ml and 6.50E+06 Cells/ml and 7.75E+06 Cells/ml (2×) and 8.75E+06 Cells/ml and 7.50E+06 Cells/ml
- Counted Cells (Total), white blood cells (therapeutic (d7) group, 3 dpi): 30 and 50 and 26 and 31 (2×) and 35
- Cells [10^3/mm^3], white blood cells (therapeutic (d7) group, 7 dpi): 4 10^3/mm^3 (3×) and 5 10^3/mm^3 and 3 10^3/mm^3 and 3.25 10^3/mm^3
- Cells/ml, white blood cells (therapeutic (d7) group, 7 dpi): 4.00E+06 Cells/ml (3×) and 5.00E+06 Cells/ml and 3.00E+06 Cells/ml and 3.25E+06 Cells/ml
- Counted Cells (Total), white blood cells (therapeutic (d7) group, 7 dpi): 16 (3×) and 20 and 12 and 13
- Cells [10^3/mm^3], white blood cells (therapeutic (d7) group, 10 dpi): 3 10^3/mm^3 and 2.75 10^3/mm^3 and 2.5 10^3/mm^3
- Cells/ml, white blood cells (therapeutic (d7) group, 10 dpi): 2.75E+06 Cells/ml and 2.50E+06 Cells/ml and 3.00E+06 Cells/ml
- Counted Cells (Total), white blood cells (therapeutic (d7) group, 10 dpi): 12 and 11 and 10
- WBC group mean (Mean 2) (therapeutic (d7) group, Row 1 (0 dpi)): 4.25 10^3cells/mm^3
- WBC group mean (Mean 2) (therapeutic (d7) group, Row 2 (3 dpi)): 8.458 10^3cells/mm^3
- WBC group mean (Mean 2) (therapeutic (d7) group, Row 3 (7 dpi)): 3.875 10^3cells/mm^3
- WBC group mean (Mean 2) (therapeutic (d7) group, Row 4 (10 dpi)): 2.708 10^3cells/mm^3
- WBC group mean (Mean 2) (therapeutic (d7) group, Row 5 (14 dpi)): 3.125 10^3cells/mm^3
- WBC group mean (Mean 2) (therapeutic (d7) group, Row 6 (17 dpi)): 4.25 10^3cells/mm^3
- WBC group mean (Mean 2) (therapeutic (d7) group, Row 7 (21 dpi)): 5.083 10^3cells/mm^3

— publication PMC8413292, “Small-molecule polymerase inhibitor protects non-human primates from measles and reduces shedding” (Nature Communications, 2021)
